Results reported in article PMC4859520, “Binding Properties of General Odorant Binding Proteins from the Oriental Fruit Moth, Grapholita molesta (Busck) (Lepidoptera: Tortricidae)” (PLoS ONE, 2016).
Where two headings read alike, the source gives them in different places.

Key:
GmolGOBP1 = GmolGOBP1 (Grapholita molesta, UniProt H9XTU5); test: Fluorescence competitive binding assay with probe 1-NPN, rGmolGOBP1; conditions: for binding to rGmolGOBP1 (in words): competitive binding with 1-NPN
Description: (§1) Fluorescence binding assays were performed on a Hitachi (Tokyo, Japan) F-4500 fluorescence spectrophotometer with a 1 cm light path fluorimeter quartz cuvette. Both of the slit widths for excitation and emission were 10 nm. 1-N-phenyl-naphthylamine (1-NPN) was dissolved in HPLC purity grade methanol to yield a 1 mM stock solution. […] The probes were excited at 337 nm and emission spectra were recorded between 370 and 550 nm. […] Binding data were collected in three independent measurements.
(§2) Dissociation constants of the complex GmolGOBPs/1-NPN (K1-NPN) were calculated by a nonlinear regression binding curve, using Prism 5.0 (GraphPad Software Inc.).

GmolGOBP2 = GmolGOBP2 (Grapholita molesta, UniProt H9XTU6); test: Fluorescence competitive binding assay with probe 1-NPN, rGmolGOBP2 wild-type
GmolGOBP2, sequence (H9XTU6 entry or part of it): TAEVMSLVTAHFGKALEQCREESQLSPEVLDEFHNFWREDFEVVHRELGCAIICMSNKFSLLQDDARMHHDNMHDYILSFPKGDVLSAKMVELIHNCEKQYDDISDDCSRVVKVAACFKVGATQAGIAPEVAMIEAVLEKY
Description: as §1, §2

rGmolGOBP2 = rGmolGOBP2 (Grapholita molesta, UniProt H9XTU6); test: 1-NPN fluorescence binding titration of rGmolGOBP2; conditions: 2 μM protein, 20 mM Tris-HCl pH 7.4; read-out: dissociation constant of 1-NPN
rGmolGOBP2, sequence (H9XTU6 entry or part of it): as above
Description: (§3) Fluorescence binding assays were performed on a Hitachi (Tokyo, Japan) F-4500 fluorescence spectrophotometer with a 1 cm light path fluorimeter quartz cuvette. Both of the slit widths for excitation and emission were 10 nm. 1-N-phenyl-naphthylamine (1-NPN) was dissolved in HPLC purity grade methanol to yield a 1 mM stock solution. A 2 μM solution of the protein in 20 mM Tris-HCl, pH 7.4, was titrated with aliquots of 1 mM 1-NPN to final concentrations of 1, 2, 4, 6, 8, 10, 12, 14, 16, 18, and 22 μM. The probes were excited at 337 nm and emission spectra were recorded between 370 and 550 nm. All ligands (S1 File) used in competitive binding assays were also dissolved in HPLC purity grade methanol. The final concentrations of sex pheromones were between 1 and 22 μM for each rGmolGOBP protein, whereas the concentrations of 30 synthetic plant volatiles to rGmolGOBP1 and 2 were up to 64 and 100 μM, respectively. Binding data were collected in three independent measurements.
(§4) Dissociation constants of the complex GmolGOBPs/1-NPN (K1-NPN) were calculated by a nonlinear regression binding curve, using Prism 5.0 (GraphPad Software Inc.). […]

rGmolGOBP1 = target: T1, rGmolGOBP1 (Grapholita molesta, UniProt H9XTU5); test: 1-NPN fluorescence binding titration of rGmolGOBP1; conditions: 2 μM protein, 20 mM Tris-HCl pH 7.4; read-out: dissociation constant of 1-NPN
T1 sequence (H9XTU5 21-164): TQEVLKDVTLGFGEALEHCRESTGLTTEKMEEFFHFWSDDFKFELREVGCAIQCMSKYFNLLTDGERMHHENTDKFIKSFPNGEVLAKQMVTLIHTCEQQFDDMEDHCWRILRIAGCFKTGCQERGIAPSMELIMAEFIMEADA
Description: as §3, §4

GmolGOBP2 V111A = GmolGOBP2 V111A (Grapholita molesta, UniProt H9XTU6, V131A); test: Fluorescence competitive binding assay, GmolGOBP2 mutant V111A
GmolGOBP2 V111A, sequence (H9XTU6 entry or part of it V131A): as the sequence (H9XTU6 entry or part of it) above, with V111A counted along it
Description: as §3
(§5) Dissociation constants of the complex GmolGOBPs/1-NPN (K1-NPN) were calculated by a nonlinear regression binding curve, using Prism 5.0 (GraphPad Software Inc.). The inhibition constants (Ki) of the competitors were computed from the corresponding IC50 values using the equation: Ki = [IC50]/(1+[1−NPN]/K1−NPN), where [1−NPN] is the free concentration of 1−NPN and K1-NPN is the dissociation constant of the complex protein/1-NPN.
(§6) Gene-specific primers were designed in accordance with the recommended protocols of the TaKaRa MutanBEST Kit (TaKaRa, Shiga, Japan). The GmolGOBP2 coding sequence was mutated to create the three mutants GmolGOBP2 T9A (threonine to alanine at position 9), GmolGOBP2 V111A (valine to alanine at position 111), and GmolGOBP2 V114A (valine to alanine at position 114). Mutations were obtained using the TaKaRa MutanBEST Kit with Pyrobest DNA polymerase with the pMD19-T/GmolGOBP2 plasmid DNA as template. All plasmids containing mutations were verified by DNA sequencing. Mutated protein expression and enrichment were performed as described above for rGmolGOBP1 and 2. After determining concentrations, purified mutants were applied to verify the binding affinities with dodecanol and its analogs in fluorescence ligand-binding assays.

GmolGOBP2 V114A = GmolGOBP2 V114A (Grapholita molesta, UniProt H9XTU6, V134A); test: Fluorescence competitive binding assay, GmolGOBP2 mutant V114A
GmolGOBP2 V114A, sequence (H9XTU6 entry or part of it V134A): as the sequence (H9XTU6 entry or part of it) above, with V114A counted along it
Description: as §3, §5, §6

GmolGOBP2 T9A = GmolGOBP2 T9A (Grapholita molesta, UniProt H9XTU6, T29A); test: Fluorescence competitive binding assay, GmolGOBP2 mutant T9A
GmolGOBP2 T9A, sequence (H9XTU6 entry or part of it T29A): as the sequence (H9XTU6 entry or part of it) above, with T9A counted along it
Description: as §3, §5, §6

[1] = protein and 1-NPN 2 μM, pH 7.4, calculated from IC50, read-out: GmolGOBP1 Ki
[2] = protein and 1-NPN 2 μM, pH 7.4, displacing half of initial fluorescence, read-out: GmolGOBP1 IC50
[3] = protein and 1-NPN 2 μM, pH 7.4, calculated from IC50, read-out: GmolGOBP2 Ki
[4] = protein and 1-NPN 2 μM, pH 7.4, displacing half of initial fluorescence, read-out: GmolGOBP2 IC50

**Q.** For `CC/C=C\CC1C(=O)CCC1CC(=O)OC` (stereo not drawn) [Methyl jasmonate], which Ki (GmolGOBP1; [1]) is on record?
**A.** 35.8 µM

**Q.** What about the IC50 (GmolGOBP1; [2]) of the same molecule?
**A.** 38.9 ± 1.56 µM

**Q.** What about the Ki (GmolGOBP2; [3]) of the same molecule?
**A.** 60.8 µM

**Q.** What about the IC50 (GmolGOBP2; [4]) of the same molecule?
**A.** 73.7 ± 5 µM

**Q.** How did the “binding to rGmolGOBP1 (in words)” value (GmolGOBP1) turn out when `CCCCCCCCCCCCCCCC` [Hexadecane] was run?
**A.** very weak binding affinities

**Q.** With `CCCCCC(=O)OCC` [Ethyl hexanoate] as the molecule, how does the Ki (GmolGOBP1; [1]) read?
**A.** 35 µM

**Q.** What about the IC50 (GmolGOBP1; [2]) of the same molecule?
**A.** 38.1 ± 3.36 µM

**Q.** With `CC/C=C\CCO` [Cis-3-Hexen-1-ol] as the molecule, how does the IC50 (GmolGOBP1) read?
**A.** 18.3 ± 1.55 µM

**Q.** And the Ki (GmolGOBP1)?
**A.** 16.8 µM

**Q.** What does the source list for `CC1=CCC2CC1C2(C)C` (stereo not drawn) [α-Pinene]?
**A.** IC50 (GmolGOBP1): 16.1 ± 1.22 µM; Ki (GmolGOBP1): 14.8 µM; IC50 (GmolGOBP2): 51.7 ± 7.11 µM; Ki (GmolGOBP2): 42.6 µM

**Q.** Which results are given for `CCCCCCCCCC=O` [Decanal]?
**A.** Ki (GmolGOBP1; [1]): 16 µM; IC50 (GmolGOBP1; [2]): 17.4 ± 1.3 µM; Ki (GmolGOBP2; [3]): 42.4 µM; IC50 (GmolGOBP2; [4]): 51.3 ± 3.18 µM

**Q.** `CCCCC(CC)CO` (stereo not drawn) [2-Ethyl-1-hexanol] was tested. Which Ki (GmolGOBP1; [1]) did it give?
**A.** 24.8 µM

**Q.** And the IC50 (GmolGOBP1; [2])?
**A.** 27 ± 1.81 µM

**Q.** How did the Ki (GmolGOBP1; [1]) turn out when `CCCC(=O)OCC` [Ethyl butyrate] was run?
**A.** 33.2 µM

**Q.** What about the IC50 (GmolGOBP1; [2]) of the same molecule?
**A.** 36.1 ± 2.88 µM

**Q.** How did the IC50 (GmolGOBP1) turn out when `CCCCOC(C)=O` [Butyl acetate] was run?
**A.** 39.9 ± 2.66 µM

**Q.** And the Ki (GmolGOBP1)?
**A.** 36.7 µM

**Q.** `C=C/C(C)=C/CCC(=C)C` [α-Ocimene] was tested. Which Ki (GmolGOBP1; [1]) did it give?
**A.** 12.4 µM

**Q.** And the IC50 (GmolGOBP1; [2])?
**A.** 13.5 ± 0.79 µM

**Q.** What about the Ki (GmolGOBP2; [3]) of the same molecule?
**A.** 44.1 µM

**Q.** And the IC50 (GmolGOBP2; [4])?
**A.** 53.4 ± 4.91 µM

**Q.** Which results are given for `c1ccc(Nc2cccc3ccccc23)cc1` [1-NPN, 1-N-phenyl-naphthylamine]?
**A.** Kd (rGmolGOBP2): 4.73 µM; Kd (rGmolGOBP1): 11.4 µM

**Q.** With `CC(=O)OCCC(C)C` [Isoamyl acetate] as the molecule, how does the Ki (GmolGOBP1; [1]) read?
**A.** 26.6 µM

**Q.** What about the IC50 (GmolGOBP1; [2]) of the same molecule?
**A.** 29 ± 2.18 µM

**Q.** For `CCCCCC(=O)OCCCC` [Butyl hexanoate], which Ki (GmolGOBP1; [1]) is on record?
**A.** 17.7 µM

**Q.** And the IC50 (GmolGOBP1; [2])?
**A.** 19.2 ± 1.27 µM

**Q.** And the Ki (GmolGOBP2; [3])?
**A.** 43.1 µM

**Q.** And the IC50 (GmolGOBP2; [4])?
**A.** 52.2 ± 2.49 µM

**Q.** `CCCCCCCCCCCCCCCCO` [hexadecanol] was tested. Which Ki (GmolGOBP2 V111A) did it give?
**A.** 1.36 ± 0.13 µM

**Q.** And the “affinity of V111A mutant versus wild-type (in words)” value (GmolGOBP2 V111A; V111A versus wild-type rGmolGOBP2)?
**A.** no differences

**Q.** What about the Ki (GmolGOBP2 V114A) of the same molecule?
**A.** 1.99 ± 0.74 µM

**Q.** And the “affinity of V114A mutant versus wild-type (in words)” value (GmolGOBP2 V114A; V114A versus wild-type rGmolGOBP2)?
**A.** no differences

**Q.** And the Ki (GmolGOBP2; rGmolGOBP2 wild-type, protein and 1-NPN 2 μM, ligand 0 to 14 μM, read-out: Ki Wild-Type)?
**A.** 1.35 ± 0.45 µM

**Q.** What about the Ki (GmolGOBP2 T9A) of the same molecule?
**A.** 22.4 ± 3.03 µM

**Q.** And the “affinity of T9A mutant versus wild-type (in words)” value (GmolGOBP2 T9A; T9A versus wild-type rGmolGOBP2)?
**A.** drastical decline in affinity

**Q.** How did the Ki (GmolGOBP1; [1]) turn out when `CC(C)CCO` [3-Methyl-1-butanol] was run?
**A.** 10.7 µM

**Q.** What about the IC50 (GmolGOBP1; [2]) of the same molecule?
**A.** 11.6 ± 0.81 µM

**Q.** For `CCC/C=C/C=O` [(E)-2-Hexenal], which IC50 (GmolGOBP1) is on record?
**A.** 23 ± 1.85 µM

**Q.** What about the Ki (GmolGOBP1) of the same molecule?
**A.** 21.2 µM

**Q.** For `CC/C=C\CCOC(C)=O` [Cis-3-Hexenyl acetate], which Ki (GmolGOBP1; [1]) is on record?
**A.** 22.4 µM

**Q.** And the IC50 (GmolGOBP1; [2])?
**A.** 24.3 ± 1.71 µM

**Q.** Which Ki (GmolGOBP1; [1]) does the source give for `CCCCCCC=O` [Heptanal] here?
**A.** 34.2 µM

**Q.** What about the IC50 (GmolGOBP1; [2]) of the same molecule?
**A.** 37.1 ± 4.5 µM

**Q.** Which “binding to rGmolGOBP1 (in words)” value (GmolGOBP1) does the source give for `CCCCCCCCCCCCCCCCCC` [Octadecane] here?
**A.** very weak binding affinities
